Laboratory results taken from patent US20170216252A1, “ANTI-BACTERIAL PYRUVATE KINASE MODULATOR COMPOUNDS, COMPOSITIONS, USES AND METHODS” (SIMON FRASER UNIVERSITY, priority 2014, published 2017).
≈ marks a conversion by molar mass, not a printed value. Like-named read-outs stand apart in the source and are kept apart here.

Assays:
S. aureus ATCC 29213 = experiment: In vitro susceptibility, broth microdilution MIC; format: cell-based, Staphylococcus aureus; conditions: Staphylococcus aureus
Outline: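 The MIC against S. aureus 29213 was determined by CLSI 2-fold serial broth microdilution in Mueller Hinton broth. Plates were incubated for 18–24 h at 37 °C and read at OD600 with background subtracted. The MIC was the lowest concentration giving complete growth inhibition versus compound-free wells.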

Human L PK = molecular target: T1, Human L PK (Homo sapiens, UniProt P30613); experiment: Human PK selectivity, LDH-coupled enzyme assay; format: biochemical; conditions: read-out: % Inhibition Human L
T1 construct: His tag; made in house; host or cells: E. coli BL-21 (DE3); construct a gift of Dr. L. Cantley
Text: (§1) Genomic DNA of MRSA strain Sanger 252 extracted using DNeasy Tissue Kit™ (Qiagen™) was used as a template to generate the His-tagged MRSA PK. Human cDNA from MCF-7 breast cancer cell line (courtesy of Dr. J Wong, BC Cancer Research Center (Vancouver, Canada) was used as a template to generate the full-length human M2 PK enzyme. The following primer sets were used creating appropriate restriction sites (NdeI and XhoI sites underlined): For cloning of MRSA PK: M27F 5′-[…]-3′ and M27R 5′-[…]-3′, for cloning of human M2 PK isoform: hM2F 5′-[…]-3′ and hM2R 5′-[…]-3′. The resulting PCR fragments for each construct were cloned into the NdeI and XhoI unique sites of the bacterial expression vector pET-28a (+) (Novagen™). […] The sequence and the correct reading frame of all constructs were verified by sequencing. Human M1, R and L PK constructs in pET-28-a(+) vectors (courtesy of Dr. L. Cantley, Harvard Medical, School (Boston, USA)) were used to generate relevant recombinant His-tagged human PK isoforms.
(§2) MRSA and human constructs in pET-28a(+) were used to express relevant recombinant PK proteins in E. coli BL-21 (DE3). The proteins were expressed and purified using Ni-NTA agarose (Qiagen™) according to the manufacturer's protocol. Briefly, cells were grown to an absorbance of 0.4-0.5 at 600 nm in 2×YT medium, then induced with 0.1 mM IPTG for 3 h at 20° C. Cells were lysed by sonication on ice (3×10-s bursts with a 30-s recovery between bursts) in lysis buffer (0.2 mg/ml lysozyme, 50 mM Tris pH 7.5, 10 mM MgCl2, 200 mM NaCl, 100 mM KCl, 10% glycerol, 10 mM imidazole, 0.5% NP-40 and 1 mM DTT containing Complete™ protease inhibitor). Cell lysates were cleared by centrifugation (18,000×g in a Beckman™ JA-20 rotor) for 20 min at 4° C. and PK isoforms were purified by batch binding to Ni-NTA resin. The resins were then packed in columns (1×2 cm) and washed with 400 column volumes lysis buffer containing 30 mM imidazole. His-tagged PK isoforms were eluted with the same buffer containing 300 mM imidazole. The proteins were dialyzed overnight at 4° C. against 2000 volumes of ice-cold 30 mM Tris pH 7.5, 25 mM KCl, 5 mM MgCl2, 10% glycerol and 1 mM DTT to remove imidazole. All purification steps were done at 4° C.; enzymes were flash-frozen and stored at −70° C. Enzymatic activity of frozen protein preparations was stable for at least 10 months and up to 5 freeze/thaw cycles. Purity and physical integrity of proteins were assessed using SDS-polyacrylamide gel electrophoresis (SDS-PAGE) followed by coomassie blue staining. Protein concentration was estimated by Bradford assay (Bio-Rad Protein Assay™) using bovine serum albumin as a standard.
(§3) Candidate MRSA PK inhibitors were assayed for their ability to inhibit enzymatic activities of MRSA and human PKs. PK activity was determined using a continuous assay coupled to lactate dehydrogenase (LDH) in which the change in absorbance at 340 nm owing to oxidation of NADH was measured using a Benchmark Plus™ microplate spectrophotometer (Bio-Rad Laboratories, Hercules, Calif.). […] Reactions were initiated by the addition of 15 nM of one of the PK enzymes. PK activity proportional to the rate of change at 340 nm was expressed as specific activity (μmol/min/mg), which is defined as the amount of PK that catalyzes the formation of one micromole of either product per minute. Inhibitors were dissolved in DMSO with the final concentration of the solvent never exceeding 1% of the assay volume. IC50 values were calculated by curve fitting on a four-parameter dose-response model with variable slope using Graphpad Prism 5.0™ (GraphPad™ Software Inc., La Jolla, Calif.). In all studies, less than 10% of total PEP was exhausted during the reaction. Reactions were performed at 30° C. for up to 5 min. All values determined represent at least two measurements, in triplicate (Tables 1-6) or duplicate unless mentioned otherwise. […]

Human M1 PK = molecular target: T2, Human M1 PK (Homo sapiens, UniProt P14618); experiment: Human PK selectivity, LDH-coupled enzyme assay; format: biochemical; conditions: read-out: % Inhibition Human M1
T2 construct: His tag; made in house; host or cells: E. coli BL-21 (DE3); construct a gift of Dr. L. Cantley
Text: as §1, §2, §3

Human M2 PK = molecular target: T3, Human M2 PK (Homo sapiens, UniProt P14618); experiment: Human PK selectivity, LDH-coupled enzyme assay; format: biochemical; conditions: read-out: % Inhibition Human M2
T3 construct: used as a template to generate the full-length human M2 PK enzyme; His tag (pET-28a(+) vector) (N); made in house; host or cells: E. coli BL-21 (DE3)
Text: as §1, §2, §3

Human R PK = molecular target: T4, Human R PK (Homo sapiens, UniProt P30613); experiment: Human PK selectivity, LDH-coupled enzyme assay; format: biochemical; conditions: read-out: % Inhibition Human R
T4 construct: His tag; made in house; host or cells: E. coli BL-21 (DE3); construct a gift of Dr. L. Cantley
Text: as §1, §2, §3

E. coli (DAS 1-IMP) = experiment: microbe, parasite or virus in culture; format: cell-based, Escherichia coli; conditions: Escherichia coli, read-out: MIC (μg/mL) C, E. coli (DAS 1-IMP)
Description: The antimicrobial activities of PK inhibitor candidates were determined using the 96-well microtiter standard 2-fold serial broth microdilution method as described by CLSI (formerly NCCLS) with the various gram-positive and gram-negative bacteria species mentioned above. Bacteria from a single colony were grown, overnight in either BHI Broth (VRE), mueller hinton broth (S. aureus 29213; MRSA USA400) or L-broth (E. coli, P. aeruginosa, S. typhimuriu, K. Pneumonia and A. baumannii). […] Culture plates were incubated for 18-24 h at 37° C., and optical density at 600 nm (OD600) was measured using a Benchmark Plus™ microplate spectrophotometer (Bio-Rad™). The absorbance control values for the series containing CAMHB and inhibitor were subtracted as background from the corresponding infected wells. The MIC was defined as the lowest concentration of test compound leading to complete inhibition of cell growth in relationship to compound-free control wells as determined by optical density. […] All assays were run in triplicate (Tables 1-6) or duplicate. Experiments were replicated at least twice to verify reproducibility using the above conditions.
The antimicrobial activity of selected compounds against the gram negative bacteria Klebsiella pneumoniae, Acinetobacter baumannii, E. coli, Pseudomonas aeruginosa and Salmonella typhimurium, as well as additional gram positive bacteria, including drug-resistant strains, was tested according to the procedures provided under “General Methodologies” above.

[1] = ATCC29213, Tables 1-6 and text, minimum concentration to give >98% inhibition of growth, read-out: MIC

T2 sequence (P14618 1-531 isoform P14618-2): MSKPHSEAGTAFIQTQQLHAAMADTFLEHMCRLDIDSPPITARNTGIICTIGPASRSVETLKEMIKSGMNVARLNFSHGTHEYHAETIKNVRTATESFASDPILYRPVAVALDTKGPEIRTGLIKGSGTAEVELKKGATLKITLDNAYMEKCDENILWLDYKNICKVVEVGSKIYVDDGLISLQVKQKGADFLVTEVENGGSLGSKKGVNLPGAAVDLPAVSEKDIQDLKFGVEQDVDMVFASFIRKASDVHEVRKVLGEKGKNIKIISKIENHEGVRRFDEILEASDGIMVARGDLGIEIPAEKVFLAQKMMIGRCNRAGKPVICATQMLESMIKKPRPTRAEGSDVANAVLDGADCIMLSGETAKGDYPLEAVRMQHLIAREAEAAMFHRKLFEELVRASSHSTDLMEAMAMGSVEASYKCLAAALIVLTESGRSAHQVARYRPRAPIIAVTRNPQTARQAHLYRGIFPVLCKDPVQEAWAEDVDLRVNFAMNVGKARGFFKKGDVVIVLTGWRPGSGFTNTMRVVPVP
T3 sequence (P14618 whole entry): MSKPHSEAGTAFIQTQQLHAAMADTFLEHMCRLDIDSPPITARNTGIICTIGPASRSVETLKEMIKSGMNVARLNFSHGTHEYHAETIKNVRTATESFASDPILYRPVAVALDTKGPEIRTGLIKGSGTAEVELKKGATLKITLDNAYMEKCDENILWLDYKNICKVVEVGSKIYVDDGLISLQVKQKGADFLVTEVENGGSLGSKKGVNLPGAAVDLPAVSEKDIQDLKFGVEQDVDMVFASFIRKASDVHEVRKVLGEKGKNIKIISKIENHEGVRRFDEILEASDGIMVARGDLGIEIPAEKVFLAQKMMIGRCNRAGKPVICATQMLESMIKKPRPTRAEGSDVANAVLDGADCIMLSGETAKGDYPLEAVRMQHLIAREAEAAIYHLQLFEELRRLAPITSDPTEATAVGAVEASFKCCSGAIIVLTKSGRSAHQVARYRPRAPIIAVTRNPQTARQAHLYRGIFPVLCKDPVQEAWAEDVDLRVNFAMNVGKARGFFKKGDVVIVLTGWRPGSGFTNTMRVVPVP
T4 sequence (P30613 whole entry): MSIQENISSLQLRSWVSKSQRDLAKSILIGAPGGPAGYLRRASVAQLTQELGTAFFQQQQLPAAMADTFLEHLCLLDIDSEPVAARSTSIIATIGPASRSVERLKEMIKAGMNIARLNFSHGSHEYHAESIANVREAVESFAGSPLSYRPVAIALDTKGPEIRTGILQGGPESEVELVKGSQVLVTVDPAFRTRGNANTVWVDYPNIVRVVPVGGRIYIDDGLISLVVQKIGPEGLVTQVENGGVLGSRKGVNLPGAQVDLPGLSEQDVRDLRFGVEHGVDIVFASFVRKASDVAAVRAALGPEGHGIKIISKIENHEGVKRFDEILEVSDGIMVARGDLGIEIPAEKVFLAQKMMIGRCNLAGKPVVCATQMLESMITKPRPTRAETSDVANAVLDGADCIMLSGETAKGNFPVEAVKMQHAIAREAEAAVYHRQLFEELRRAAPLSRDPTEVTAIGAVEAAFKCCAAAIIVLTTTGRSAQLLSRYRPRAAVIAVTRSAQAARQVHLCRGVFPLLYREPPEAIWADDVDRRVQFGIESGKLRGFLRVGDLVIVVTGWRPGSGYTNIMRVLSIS
T1 sequence (P30613 1-543 isoform P30613-2): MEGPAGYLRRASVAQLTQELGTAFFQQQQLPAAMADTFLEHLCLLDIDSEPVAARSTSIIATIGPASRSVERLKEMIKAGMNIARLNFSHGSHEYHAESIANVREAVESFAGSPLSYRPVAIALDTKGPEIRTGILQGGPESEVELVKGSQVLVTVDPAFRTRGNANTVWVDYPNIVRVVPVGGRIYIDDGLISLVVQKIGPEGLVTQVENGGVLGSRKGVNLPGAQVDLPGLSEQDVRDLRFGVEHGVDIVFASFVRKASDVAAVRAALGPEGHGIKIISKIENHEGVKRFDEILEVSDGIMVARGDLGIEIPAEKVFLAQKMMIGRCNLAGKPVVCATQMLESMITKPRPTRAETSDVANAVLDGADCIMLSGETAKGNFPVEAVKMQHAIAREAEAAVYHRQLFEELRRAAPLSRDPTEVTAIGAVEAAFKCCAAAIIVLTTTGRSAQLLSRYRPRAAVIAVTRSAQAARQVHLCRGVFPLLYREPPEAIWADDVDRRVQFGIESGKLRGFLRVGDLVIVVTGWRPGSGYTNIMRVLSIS

| SMILES | MIC (S. aureus ATCC 29213; [1]) | inhibition at 10 µM (Human L PK; at 10 μM) | inhibition at 10 µM (Human M1 PK; at 10 μM) | inhibition at 10 µM (Human M2 PK; at 10 μM) | inhibition at 10 µM (Human R PK; at 10 μM) | melting point | MIC (S. aureus ATCC 29213; ATCC29213) | inhibition at 10 µM (Human L PK) | inhibition at 10 µM (Human M1 PK) | inhibition at 10 µM (Human M2 PK) | inhibition at 10 µM (Human R PK) | MIC (S. aureus ATCC 29213; ATCC29213, S. aureus (ATCC29213), Table 9, read-out: MIC (μg/mL) H) | MIC (E. coli (DAS 1-IMP)) |
| --- | --- | --- | --- | --- | --- | --- | --- | --- | --- | --- | --- | --- | --- |
| Brc1ccc2[nH]c(-c3cc4cc(Br)ccc4[nH]3)cc2c1 [Compound 10i, 5,5′-Bibromo-1H,1′H-2,2′-biindole] | > 64 µg/mL | 9.8% | 12.3% | 0.5% | 24.4% | 304 to 306 °C |  |  |  |  |  |  |  |
| OCCn1c(-c2cc3ccc(Br)cc3[nH]2)cc2cc(Br)ccc21 [Compound 17, 2-(5,6′-Dibromo-1H, 1′H-[2,2′-biindol]-1-yl)ethanol] | 2 µg/mL (≈ 4.61 µM) | 6.8% | 14.6% | 12.1% | 25.2% |  |  |  |  |  |  |  |  |
| Brc1ccc2cc(-c3cc4cc(Br)c(Br)cc4[nH]3)[nH]c2c1 [Compound 10k, 5,6,6′-Tribromo-1H,1′H-2,2′-biindole] | 0.5 µg/mL (≈ 1.07 µM) | 26.8% | 16.1% | 20.8% | 41% |  |  |  |  |  |  |  |  |
| Brc1ccc2cc(-c3nc4ccccc4s3)[nH]c2c1 [Compound 22a, 2-(6-Bromo-1H-indol-2-yl)benzo[d]thiazole] | > 64 µg/mL | 7.8% | 12.4% | 3% | 21.6% |  |  |  |  |  |  |  |  |
| Brc1ccc2cc(/C=C/c3cc4ccccc4[nH]3)[nH]c2c1 [Compound 27a, (E)-2-(2-(1H-indol-2-yl)vinyl)-6-bromo-1H-indole] | > 64 µg/mL | 12.9% | 16.1% | -0.9% | 23.8% |  |  |  |  |  |  |  |  |
| Brc1ccc2[nH]c(C#Cc3cc4ccc(Br)cc4[nH]3)cc2c1 [Compound 25c, 6-Bromo-2-((5-bromo-1H-indol-2-yl)ethynyl)-1H-indole] | 16 µg/mL (≈ 38.6 µM) | 14% | 19.5% | 8.7% | 27.8% | 236 to 237 °C |  |  |  |  |  |  |  |
| Brc1ccc2cc(CCc3cc4ccc(Br)cc4[nH]3)[nH]c2c1 [Compound 28a, 1,2-bis(6-bromo-1H-indol-2-yl)ethane] | > 64 µg/mL | 9.7% | 9.9% | 1.3% | 24.1% |  |  |  |  |  |  |  |  |
| Brc1ccc2cc(-c3cc4ccccc4o3)[nH]c2c1 [Compound 22b, 2-(Benzofuran-2-yl)-6-bromo-1H-indole] | > 64 µg/mL | -6% | 5.3% | 0.4% | -5.5% | 196 to 198 °C |  |  |  |  |  |  |  |
| Cn1c(-c2cc3ccc(Br)cc3[nH]2)cc2cc(Br)ccc21 [Compound 12a, 5,6′-Dibromo-1-methyl-1H,1′H-2,2′-biindole] | > 64 µg/mL | 2.8% | 13.9% | 9.1% | 2.7% | 180 to 182 °C |  |  |  |  |  |  |  |
| CN1CCN(CCn2c(-c3cc4ccc(Br)cc4[nH]3)cc3cc(Br)ccc32)CC1 [Compound 20a, 5,6′-Dibromo-1-(2-(4-methylpiperazin-1-yl)ethyl)-1H,1′H-2,2′-biindole] | 4 µg/mL (≈ 7.75 µM) | 16.8% | 3.2% | 1.7% | 26.1% | 140 °C |  |  |  |  |  |  |  |
| Brc1cc2cc(-c3cc4cc(Br)c(Br)cc4[nH]3)[nH]c2cc1Br [Compound 10l, 5,5′,6,6′-Tetrabromo-1H,1′H-2,2′-biindole] |  |  |  |  |  |  | > 64 µg/mL | 8.2% | 11.1% | 2.3% | 20.7% |  |  |
| Brc1ccc2c(c1)cc(-c1cc3ccc(Br)cc3[nH]1)n2CCN1CCOCC1 [Compound 20b, 4-(2-(5,6′-dibromo-1H,1′H-[2,2′-biindol]-1-yl)ethyl)morpholine] | > 64 µg/mL | 32.1% | 13.1% | 3.5% | 50.7% |  |  |  |  |  |  |  |  |
| Brc1ccc2[nH]c(-c3cc4ccc(Br)cc4[nH]3)cc2c1 [Compound 10c, 5,6-Bibromo-1H,1′H-2,2′-biiindole] | 0.3 µg/mL (≈ 0.769 µM) | 6.1% | 6.9% | 8.7% | 13.6% | 270 to 272 °C |  |  |  |  |  |  |  |
| Brc1ccc2cc(-c3cc4ccc(Br)cc4[nH]3)[nH]c2c1 [Compound 10b, 6,6′-Dibromo-1H,1′H-2,2′-biindole] | 16 µg/mL (≈ 41 µM) | 7.9% | 10.3% | 0.1% | 18.3% | 266 to 267 °C |  |  |  |  |  |  |  |
| COc1cc(-c2cc3ccccc3[nH]2)ccc1-c1cc2ccc(Br)cc2[nH]1 [Compound 33e, 2-(4-(1H-indol-2-yl)-2-methoxyphenyl)-6-bromo-1H-indole] | > 64 µg/mL | 4.3% | 7.3% | 14.6% | 13.5% |  |  |  |  |  |  |  |  |
| O=C(c1c(-c2cc3cc(Cl)ccc3[nH]2)[nH]c2cc(Br)ccc12)C(F)(F)F [Compound 178, 1-(6-bromo-5′-chloro-1H,1′H-[2,2′-biindol]-3-yl)-2,2,2-trifluoroethan-1-one] |  |  |  |  |  |  |  |  |  |  |  | 1 µg/mL (≈ 2.26 µM) | > 64 µg/mL |
